Measurements from patent US20260028364A1, “CATIONIC CHROMENONES AND THEIR USE IN ONCOLOGY” (FLORATEK PHARMA S.A., priority 2022, published 2026).
pIC50: −log10 of the molar value.

Assays:
[1] = system: MCF-7; test: CellTiter-Glo cell viability, MCF-7; format: cell-based; settings: MCF-7 cells, 72 h with compound
Protocol: (§1) Antitumor activity against a panel of cancer cell lines Antitumor activity of the compounds was assessed by using the CellTiter-Glow® Luminescent Cell Viability assay (Promega #G7572) according to the manufacturer's instructions. The compounds were tested at 5 or 6 concentrations in 1:2 dilution increments (highest concentration 10 µM) in triplicate well conditions.
(§2) Tumor cells were grown at 37° C. in a humidified atmosphere with 5% CO2 in RPMI 1640 or DMEM medium, supplemented with 10% (v/v) fetal calf serum and 50 μg/ml gentamicin for up to 20 passages, and were passaged once or twice weekly. Cells were harvested using TrypLE or PBS buffer containing 1 mM EDTA, and the percentage of viable cells is determined using a cell counter.
(§3) Cells were harvested from exponential phase cultures, counted and plated in 96 well flat-bottom microtiter plates at a cell density depending on the cell line's growth rate (4,000-20,000 cells/well depending on the cell line's growth rate) in RPMI 1640 or DMEM medium supplemented with 10% (v/v) fetal calf serum and 50 μg/ml gentamicin (140 μl/well). Cultures were incubated at 37° C. and 5% CO2 in a humidified atmosphere. After 24 h, 10 μl of test compounds or control medium are added, and left on the cells for another 72 h. Compounds were serially diluted in DMSO, transferred in cell culture medium, and added to the assay plates. The DMSO concentration was kept constant at <0.2% v/v across the assay plate. Viability of cells was quantified by the CellTiter-Glow® Luminescent Cell Viability assay (Promega #G7572). Luminescence was measured with the microplate luminometer (En Vision Perkin Elmer).
(§4) Sigmoidal concentration-response curves were fitted to the data points (test-versus-control, T/C values) obtained for each tumor model using Graph Pad prism 5.02 software. IC50 values are reported as absolute IC50 values, being the concentration of test compound at the intersection of the concentration-response curves with T/C=50%.

[2] = system: NCI-H1299; test: CellTiter-Glo cell viability, NCI-H1299; format: cell-based; settings: H1299 cells, 72 h with compound
Protocol: as §1, §2, §3, §4

[3] = system: HCC-15; test: CellTiter-Glo cell viability, HCC-15; format: cell-based; settings: HCC-15 cells, 72 h with compound
Protocol: as §1, §2, §3, §4

[4] = system: MIA-PaCa-2; test: CellTiter-Glo cell viability, MIA-PaCa-2; format: cell-based; settings: MIA-PaCa-2 cells, 72 h with compound
Protocol: as §1, §2, §3, §4

[5] = system: A-673; test: CellTiter-Glo cell viability, A-673; format: cell-based; settings: A-673 cells, 72 h with compound
Protocol: as §1, §2, §3, §4

[6] = system: SK-Mel-5; test: CellTiter-Glo cell viability, SK-Mel-5; format: cell-based; settings: SK-Mel-5 cells, 72 h with compound
Protocol: as §1, §2, §3, §4

[7] = system: U87MG; test: CellTiter-Glo cell viability, U87MG; format: cell-based; settings: U87MG cells, 72 h with compound
Protocol: as §1, §2, §3, §4

[8] = system: A375; test: CellTiter-Glo cell viability, A375; format: cell-based; settings: A375 cells, 72 h with compound
Protocol: as §1, §2, §3, §4

[9] = system: SK-N-SH; test: CellTiter-Glo cell viability, SK-N-SH; format: cell-based; settings: SK-N-SH cells, 72 h with compound
Protocol: as §1, §2, §3, §4

[10] = system: H69; test: CellTiter-Glo cell viability, H69; format: cell-based; settings: H69 cells, 72 h with compound
Protocol: as §1, §2, §3, §4

[11] = system: BxPC-3; test: CellTiter-Glo cell viability, BxPC-3; format: cell-based; settings: BxPC-3 cells, 72 h with compound
Protocol: as §1, §2, §3, §4

[12] = system: 22Rv1; test: CellTiter-Glo cell viability, 22Rv1; format: cell-based; settings: 22Rv1 cells, 72 h with compound
Protocol: as §1, §2, §3, §4

[13] = system: A2058; test: CellTiter-Glo cell viability, A2058; format: cell-based; settings: A2058 cells, 72 h with compound
Protocol: as §1, §2, §3, §4

[14] = system: HepG2; test: CellTiter-Glo cell viability, HepG2; format: cell-based; settings: HepG2 cells, 72 h with compound
Protocol: as §1, §2, §3, §4

[15] = system: A2058 melanoma tumor cells; test: In vivo tumour inhibition, A2058 melanoma xenograft; set-up: species or system Balb-c/nude mouse; settings: for T/C / TGI: Example 5, 12 mg/kg, day 20 after treatment start; for activity in inhibiting A2058 melanoma cell line in vivo: nude mouse xenograft model of melanoma
Protocol: The A2058 tumor cells were maintained in vitro in DMEM medium supplemented with 10% fetal bovine serum and 1% Anti-Anti at 37° C. in an atmosphere of 5% CO2 in air. The tumor cells were routinely subcultured twice weekly.
Each Balb-c/nude mouse was inoculated subcutaneously at the right flank with A2058 melanoma tumor cells (5×10^6+Matrigel) in 0.2 ml of PBS for tumor development. 10 animals per group were randomized when the average tumor volume reached 74 mm^3. Test compounds were prepared as DMSO stocks and diluted in the injection vehicle before administration. The treatment was administered every other day (QOD) as a peritumoral injection. Vehicle composition was 4% DMSO, 5% ethanol, 20% PEG200, 71% saline. Dosing volume for all groups: 5 mL/kg.
Tumor volume was measured twice weekly in two dimensions using a caliper, and the volume was expressed in mm^3 using the formula: V=0.5a×b^2 where a and b are the long and short diameters of the tumor, respectively. The tumor size was then used for calculations of T/C value: The T/C value (in percent) is an indication of antitumor effectiveness; T and Care the mean volumes of the treated and control groups, respectively, on a given day.
One-way ANOVA was performed to compare tumor volume among treated groups and vehicle group, all data were analyzed using GraphPad Prism 5.0. p<0.05 was considered to be statistically significant.

[16] = system: MOLT-4; test: CellTiter-Glo cell viability, MOLT-4; format: cell-based; settings: Homo sapiens; MOLT-4 cells, 72 h with compound
Protocol: as §1, §2
as §3, with “After 24 h, 10 μl of test compounds or control medium are added, and left on the cells for another 72 h. Compounds were serially diluted in DMSO, transferred in cell culture medium, and added to the assay plates. The DMSO concentration was kept constant at <0.2% v/v across the assay plate.” left out, “Elmer). […]” for “Elmer).”

Row | Structure (SMILES) | pIC50 [1] | pIC50 [2] | pIC50 [3] | pIC50 [4] | pIC50 [5] | pIC50 [6] | pIC50 [7] | pIC50 [8] | pIC50 [9] | pIC50 [10] | pIC50 [11] | pIC50 [12] | pIC50 [13] | pIC50 [14] | T/C [15] | TGI [15] | activity in inhibiting A2058 melanoma cell line in vivo [15] | pIC50 [16] | pIC50 ([5]; Homo sapiens, A673)
1 | COc1ccc2c(=O)c(-c3ccc(CCCCCC[P+](c4ccccc4)(c4ccccc4)c4ccccc4)cc3)coc2c1OC.[Cl-] [SND477] | 6.68 | 6.51 | 6.62 | 6.70 | 6.22 | 6.80 | 6.49 | 6.68 | 6.26 | 6.64 | 6.59 | 6.96 | 6.62 | 6.18 | 35.6% | 68.7% | significant activity | – | –
2 | COc1ccc2c(=O)c(-c3ccc(CCCCCCCC[P+](c4ccccc4)(c4ccccc4)c4ccccc4)cc3)coc2c1OC [SND478] | 6.66 | 6.59 | 6.66 | 6.72 | 6.19 | 6.82 | 6.41 | 6.62 | 6.31 | 6.68 | 6.60 | 6.77 | 6.57 | 6.17 | – | – | – | – | –
3 | COc1ccc2c(=O)c(-c3ccc(CCCCCCCCCC[P+](c4ccccc4)(c4ccccc4)c4ccccc4)cc3)coc2c1OC.[Cl-] [SND479] | 6.77 | 6.70 | 6.72 | 6.96 | 6.36 | 6.96 | 6.62 | 6.68 | 6.68 | 6.64 | 6.66 | 6.77 | 6.72 | 6.36 | 33.5% | 70.0% | significant activity | – | –
4 | O=c1c(-c2ccc(CCCC[P+](c3ccccc3)(c3ccccc3)c3ccccc3)cc2)coc2c(O)c(O)ccc12 [SND490, (4-(4-(7,8-Dihydroxy-4-oxo-4H-chromen-3-yl)phenyl)butyl)triphenylphosphonium bromide] | – | – | – | – | – | – | – | – | – | – | – | – | – | – | – | – | – | 6.25 | 5.71
